Data published in patent US10159676B2, “Induction of tumor hypoxia for cancer therapy” (Virginia Commonwealth University, priority 2008, dated 2018).

What was measured:
tumor = conditions: tirapazamine alone given at 70 mg/kg; cited from earlier work
[1] = Weight loss in multiple dosing xenograft study; assay type: in vivo, nude mice; conditions: day 14; tirapazamine 60 mg/kg ip days 8, 10, 12 (alone or with stilbene 5c 50 mg/kg)
Protocol: Next we measured the size of tumor xenografts after multiple dosing. Nude mice were injected subcutaneously with UCI-101 cells and tumor became visible after day 7. Treatment was administered by intraperitoneal injection on days 8, 10 and 12 with 6 mice in each group. […] […]. […].

[2] = in vivo; cited from earlier work
UCI-101 tumor xenografts = assay: Tumor xenograft size after multiple dosing (days 8, 10, 12); assay type: in vivo, nude mice; conditions: ip on days 8, 10 and 12; stilbene 5c 50 mg/kg, tirapazamine 60 mg/kg; day 14; 6 mice per group
Protocol: The long and short axes of tumor were measured to calculate tumor size and plotted against days. Each treatment group contains 6 mice.
Mice were then sacrificed at day 14. The long and short axes of tumors were measured to calculate tumor size and plotted against days. Each treatment group contains 6 mice.
Tumor cell lines used in this study include UCI-101 ovarian cancer cells and Hep3B hepatocellular carcinoma cells. Cells are grown in IMEM and DMEM, respectively, supplemented with 10% fetal bovine serum, glutamine, and penicillium/streptomycin in 5% CO2 humidified environment. When cells were grown to 80% confluent, cells were harvested with 1% trypsin and washed with phosphate-buffered saline three times before injected subcutaneously into nude mice. For mouse xenograft studies, 2×10^6 tumor cells were injected in the back subcutaneously. Nude mice were purchased from NCI Development Therapeutic Program as described. Tumor size was monitored by long and short axes (a and b, respectively) by a caliber and tumor volume was calculated by the formula ab^2/2. […] Treatment with AAA bevacizumab was done by tail vein injection at a dose of 10 mg/kg.
Next we measured the size of tumor xenografts after multiple dosing. Nude mice were injected subcutaneously with UCI-101 cells and tumor became visible after day 7. […] Tumor xenografts were measured and sizes are plotted in FIG. 7.

[3] = system: stage IV non-small cell lung cancer; conditions: cited from earlier work
[4] = cited from earlier work
hypoxic cells = conditions: cited from earlier work
[5] = in vivo; cited from earlier work; remark: listed apart in the source
UCI-101 tumor xenograft = assay: Tumor growth, stilbene 5c with or without bevacizumab; assay type: in vivo, nude mice; conditions: stilbene 5c 20 mg/kg/day Monday to Friday for two weeks; bevacizumab 10 mg/kg twice a week for 5 doses
Protocol: FIG. 4. Efficacy of stilbene 5c in vivo and enhanced effect by bevacizumab. Nude mice were injected with UCI-101 cells subcutaneously and mice are treated with stilbene 5c at 20 mg/kg/day Monday-Friday with or without bevacizumab 10 mg/kg twice a week. Tumor volume was calculated by the long and short axes. Each group contains 8 mice and the average tumor volumes and standard deviations were plotted against days.
Tumor cell lines used in this study include UCI-101 ovarian cancer cells and Hep3B hepatocellular carcinoma cells. Cells are grown in IMEM and DMEM, respectively, supplemented with 10% fetal bovine serum, glutamine, and penicillium/streptomycin in 5% CO2 humidified environment. When cells were grown to 80% confluent, cells were harvested with 1% trypsin and washed with phosphate-buffered saline three times before injected subcutaneously into nude mice. For mouse xenograft studies, 2×10^6 tumor cells were injected in the back subcutaneously. Nude mice were purchased from NCI Development Therapeutic Program as described. Tumor size was monitored by long and short axes (a and b, respectively) by a caliber and tumor volume was calculated by the formula ab^2/2. […]. Treatment with AAA bevacizumab was done by tail vein injection at a dose of 10 mg/kg.
Next we used ovarian cancer UCI101 cells to study the in vivo efficacy of stilbene 5c We first administered stilbene 5c with intraperitoneal injection at 25 mg/kg three times a week. Tumor volume was calculated by measuring the long and short axes. […] The failure could be due to the possibility that intermittent dosing leaves a viable rim of tumor, which survives the treatment of VDAs by getting nutritional and blood support from surrounding normal vasculature. When treatment with VDAs is stopped, the viable rim of tumor grows quickly. Tumor vasculature recovers quickly by recruitment of the mobilized endothelial progenitor cells. Based on this rationale, we combined stilbene 5c with bevacizumab, which was used to neutralize VEGF secreted by UCI-101 tumor cells. […]

[6] = phase I, intravenous every three weeks

Row | Molecule | tumor growth suppression (tumor) | weight loss [1] [%] | potential side effects in animal studies [2] | size of tumor compared with the control (UCI-101 tumor xenografts) | response rate, overall survival, or progression free survival ([3]; tirapazamine 260-330 mg/m^2 added to carboplatin and paclitaxel vs placebo) | systemic toxicity ([3]; tirapazamine added to carboplatin and paclitaxel vs placebo) | tolerated dose, tirapazamine by itself ([4]; phase I and phase II trials) | dose with dose limiting toxicities (reversible ototoxicity and transient visual abnormality) [4, 6] | maximum tolerated dose (MTD) [4, 6] [mg/m^2] | greater toxicity to hypoxic cells compared to well-oxygenated cells (hypoxic cells) | half-life [5] | tumor growth suppression (UCI-101 tumor xenograft)
1 | Nc1n[n+]([O-])c2ccccc2[n+]1[O-] [tirapazamine, 3-amino-1,2,4-benzotriazine-1,4-di-N-oxide] | no effect | 20 | bone marrow toxicity, necrosis of the olfactory nerve, and retinal degeneration | about 50% | no benefit | increased systemic toxicity | up to 390 mg/m^2 | above 330 mg/m^2 | 390 | 15-200 fold |  | 
2 | bevacizumab: a monoclonal antibody against vascular endothelial growth factor (VEGF) [reference compound] |  |  |  |  |  |  |  |  |  |  | over 7 days | about 25%
